The subject of one experiment is Enterobacter cloacae P99. The experiment can be described thus: Minimum inhibitory concentration by serial dilution in agar. The class given is cell-based. The method, then: (§1) Minimum inhibitory Concentration (MIC) values of compounds of the invention against Enterobacter cloacae P99 and Pseudomonas aeruginosa 10662 were determined by serial dilution in agar. The plates were inoculated with 104 colony forming units and incubated overnight at 37°C. The MIC values recorded in Tables 1 and 2 were the lowest concentration of antibiotic to inhibit growth.

The subject of experiment [1] is Pseudomonas aeruginosa 10662. The description is as above. The class given is cell-based. As for the experimental part:
as §1

Setting [2] is: Pseudomonas aeruginosa 10662, serial dilution in agar, inoculated with 104 colony forming units, incubated overnight at 37°C, lowest concentration to inhibit growth, read-out: MIC.

Values after ≈ are worked out from the molar mass of the structure shown. Where a name gives a salt, the structure may show the parent alone. Read-outs that look alike come from different tables or passages of the source.

Drawing on EP0265185A2, “Cephalosporins, processes for their preparation and pharmaceutical compositions containing them” (BEECHAM GROUP PLC, priority 1986, dated 1988), this text covers MIC for seven molecules.

One may read the MIC as the lowest concentration found to suppress growth. Regarding `CCN1CCN(C(=O)N[C@@H](C(=O)N[C@]2(NC=O)C(=O)N3C(C(=O)[O-])=C(CN=[N+]=[N-])CS[C@@H]32)c2ccccc2)C(=O)C1=O.[Na+]` [Example 3, Sodium (6R,7R)-3-Azidomethyl-7-[(R)-2-(4-ethyl-2,3-dioxopiperazin-1-ylcarbonylamino)-2-phenylacetamido]-7-formamidoceph-3-em-4-carboxylate], the MIC is 4 µg/mL in the experiment on Enterobacter cloacae P99 and 4 µg/mL in experiment [1] (Pseudomonas aeruginosa, 10662).
Turning to `CCN1CCN(C(=O)N[C@@H](C(=O)N[C@]2(NC=O)C(=O)N3C(C(=O)O)=C(COC(C)=O)CS[C@@H]32)c2ccccc2)C(=O)C1=O` [Compound B, 7β-[D-2-[(4-ethyl-2,3-dioxopiperazin-1-yl)carbonylamino]-2-phenylacetamido]-7α-formamidocephalosporanic acid, sodium salt, reference compound], the MIC (in the experiment with Enterobacter cloacae P99; in experiment [1] (setting [2])) was 16 µg/mL in each case.
Turning to `CO/N=C(\C(=O)N[C@@H]1C(=O)N2C(C(=O)[O-])=C(COC(=O)c3ccc(O)c(O)c3)CS[C@H]12)c1csc(N)n1.[Na+]` [Example 10, Sodium (6R,7R)-7-[2-(2-amino-4-thiazolyl)-2-((Z)-methoxyimino)acetamido]-3-(3,4-dihydroxybenzoyloxy)methylceph-3-em-4-carboxylate], the MIC is 4 µg/mL against Enterobacter cloacae P99 and 0.12 µg/mL in experiment [1] (Pseudomonas aeruginosa, 10662).
Take `CCN1CCN(C(=O)N[C@@H](C(=O)N[C@]2(NC=O)C(=O)N3C(C(=O)[O-])=C(CNC(=O)c4ccc(O)c(O)c4)CS[C@@H]32)c2ccccc2)C(=O)C1=O.[Na+]` [Example 7, Sodium (6R,7R)-3-(3,4-Dihydroxybenzoyl)aminomethyl7-[(R)-2-(4-ethyl-2,3-dioxopiperazin-1-ylcarbonylamino) -2-phenylacetamido]-7-formamido-ceph-3-em-4-carboxylate]: the MIC is 0.25 µg/mL with Enterobacter cloacae P99 and no more than 0.03 µg/mL in experiment [1] (Pseudomonas aeruginosa, 10662).
The like results for `CCN1CCN(C(=O)N[C@@H](C(=O)N[C@]2(NC=O)C(=O)N3C(C(=O)[O-])=C(COC(=O)c4ccc(O)c(O)c4)CS[C@@H]32)c2ccccc2)C(=O)C1=O.[Na+]` [Example 1, Sodium (6R,7R)-3-(3,4-Dihydroxybenzoyloxy)methyl-7-[(R)-2-(4-ethyl-2,3-dioxopiperazin-1-yl)carbonylamino-2-phenylacetamido]-7-formamidoceph-3-em-4-carboxylate] were, in that order, 0.12 µg/mL and no more than 0.03 µg/mL.
For the molecule `CO/N=C(\C(=O)N[C@@H]1C(=O)N2C(C(=O)O)=C(COC(C)=O)CS[C@H]12)c1csc(N)n1` [Compound A, cefotaxime, reference compound], the results for the MIC (in the experiment with Enterobacter cloacae P99; in experiment [1] (setting [2])) were no less than 128 µg/mL and 16 µg/mL (≈ 35.1 µM), respectively.
As for `CCN1CCN(C(=O)N[C@@H](C(=O)N[C@]2(NC=O)C(=O)N3C(C(=O)[O-])=C(CNC(=O)/C=C/c4ccc(OC(C)=O)c(OC(C)=O)c4)CS[C@@H]32)c2ccccc2)C(=O)C1=O.[Na+]` [Example 6, Sodium (6R,7R)-3-[(E)-3,4-Diacetoxycinnamoyl]aminomethyl-7-[(R)-2-(4-ethyl-2,3-dioxopiperazin-1-ylcarbonylamino)-2-phenylacetamido]-7-formamido-ceph-3-em-4-carboxylate], the MIC came out at 0.5 µg/mL in the experiment on Enterobacter cloacae P99 and 0.12 µg/mL in experiment [1] (Pseudomonas aeruginosa, 10662).
